Patent US11377444B2, “Pyridopyrimidine compounds acting as mTORC 1/2 dual inhibitors” (MEDSHINE DISCOVERY INC., priority 2017, dated 2022)
Where “and” joins values, the source holds several entries; their conditions need not be identical. Equal entries are not always repeated.

Experiments:
[1] = tested on: human breast cancer MCF-7 cell subcutaneous xenograft tumor; assay: In vivo pharmacodynamic study, MCF-7 subcutaneous xenograft tumor; design: species or system BALB/c nude mouse; conditions: for Tumor volume (27th day): mean ± SEM; for Tumor volume (day 0): day 0, mean ± SEM
Source text: Experimental Embodiment 4: In Vivo Pharmacodynamic Study on BALB/c Nude Mouse Model of Human Breast Cancer MCF-7 Cell Subcutaneous Xenograft Tumor
Experimental objective: To study the efficacy of the test compounds on human breast cancer MCF-7 cell subcutaneous xenograft tumor in BALB/c nude mouse model.
Experimental animals: Female BALB/c nude mice, 6-8 weeks old, weighing 18-22 grams; supplier: Shanghai Xipuer-Bikai Experimental Animal Co., Ltd.
Human breast cancer MCF-7 cells (ECACC, article number: 86012803) were subjected to in vitro monolayer culture under the conditions of EMEM (EBSS)+2 mM […]+1% Non Essential Amino Acids (NEAA) medium containing 10% fetal bovine serum, 100 U/mL penicillin and 100 μg/mL streptomycin, and 37° C., 5% CO2incubator. Conventional digestion treatment was carried out with trypsin-EDTA twice a week for cell passage. When the cell saturation was 80%-90%, and the quantity reached the requirement, the cells were collected, counted and inoculated.
Estrogen tablets (0.18 mg) were inoculated into the left back of each mouse three days before cell inoculation, 0.2 mL (1×10^7) MCF-7 cells (added with matrigel, volume ratio of 1:1) were subcutaneously inoculated into the right back of each mouse. When the average volume of tumor reached 142 mm^3, the mice were divided into groups and began to be administrated.
The test compounds were prepared into clear solutions of 0.75 mg/mL, 1.5 mg/mL and 3 mg/mL. The vehicles were 5% DMSO+30% polyethylene glycol 300+65% water.
The experimental indexes were used for investigating whether the growth of the tumors had been inhibited, delayed or cured. The diameters of the tumors were measured with vernier calipers twice a week. The calculation formula of the tumor volume was: V=0.5a×b^2, wherein a and b represent the long and short diameters of the tumor respectively.
The antitumor efficacy of the compound was evaluated by TGI (%) or relative tumor proliferation rate T/C (%). TGI (%) reflects the inhibition rate of the tumor growth. Calculation of TGI (%): TGI (%)=[1−(average tumor volume at the end of administration in the treatment group−average tumor volume at the beginning of administration in the treatment group)/(average tumor volume at the end of treatment in the vehicle control group−average tumor volume at the beginning of treatment in the vehicle control group)]×[…].
Relative tumor proliferation rate T/C (%): The calculation formula was as follows: T/C %=TRTV/CRTV at the beginning of the treatment (TRTV: treatment group RTV; CRTV: negative control group RTV). The relative tumor volume (RTV) was calculated according to the results of tumor measurement. The calculation formula was RTV=Vt/V0, wherein V0 is the average tumor volume measured during administration of the groups (i.e. d0), and Vt is the average tumor volume during a certain measurement, the TRTV and CRTV were taken on the same day.
Statistical analysis included the mean and standard error (SEM) of tumor volume at each time point in each group. […] The comparison between two groups was analyzed by T-test, and the comparison between three or more groups was analyzed by one-way ANOVA.

[2] = tested on: HT-29 cell; assay: Cell proliferation inhibitory activity (Cell-Titer-Glo), HT-29; type: cell-based; conditions: Homo sapiens, HT-29, 72 h, 3 days incubation
Source text: (§1) Experimental Embodiment 2: Evaluation of Cell Proliferation Inhibitory Activity
(§2) Experiment objective: To detect cell proliferation inhibitory activity of the tested compounds.
(§3) Experimental principle: The luciferase in the Cell-Titer-Glo reagent produces oxyluciferin using luciferin, oxygen and ATP as reaction substrates, and releases energy in the form of light. Since the reaction of luciferase requires ATP, the total amount of light generated by the reaction is proportional to the total amount of ATP that reflects cell viability.
(§4) Cell lines: MCF-7 cell line […], HT-29 cell line (ATCC-HTB-38), OE21 (ECACC-96062201), NCI-N87 cell line (ATCC-CRL-5822)
(§5) Cell culture medium: (RPMI 1640 culture medium (Invitrogen #1868546; 10% serum Invitrogen #1804958; L-glutamine 1×, Invitrogen #1830863; dual antibiotic Hyclone #J170012))
(§6) Cell Titer-Glo® Luminescent Cell Viability Assay Kit (Promega #G7573)
(§7) The cells were inoculated in a 384- or 96-well plate with a density of 1000 cells per well and 25 μL per well according to the instructions of the cell inoculating plate. The edge wells were not inoculated with cells, and was supplemented with […].
(§8) (i) The mother solution of the compound was 10 mM, and diluted with DMSO to an initial concentration of 4 mM. The compound was added to the compound mother solution, 9 μL per well.
(§9) (ii) The compound was diluted with ECHO liquid-handling workstation. Each well of the cell plate was added with 125 nL compound. Each well of the cell wells in 2nd column and 23rd column was added with 125 nL DMSO, and each of the PBS wells in 1st column and 24th column was added with 125 nL DMSO.
(§10) (iii) Each well of the cell plate was supplemented with 25 μL culture medium, the final volume in each well of the cell plate was 50 μL, […] 3 times dilution, 10 concentrations, each concentration was duplicated in left and right wells, the final DMSO concentration was 0.25%.
(§11) 2.3. After addition of the compound, centrifugation was performed at 1000 rpm for 1 min, and the cell plate was placed in a 37° C., 5% CO2 incubator for 3 days.
(§12) The cell plate was taken out from the incubator and equilibrated at room temperature for 30 minutes. 25 μL Cell-Titer-Glo reagent was added to each well, shaken for one minute to mix thoroughly, centrifuged at 1000 rpm for 1 minute. After 10 minutes, the plate was read on PerkinElmer Envision with a […] reading time was set at 0.2 second.

[3] = tested on: OE21 cell; assay: Cell proliferation inhibitory activity (Cell-Titer-Glo), OE21; type: cell-based; conditions: OE21, 72 h; 3 days incubation
Source text: as §1, §2, §3, §4, §5, §6, §7, §8, §9, §10, §11, §12

Row | SMILES | T/C ([1]; 7.5 mg/kg) | TGI ([1]; 7.5 mg/kg) | RTV (27th day) ([1]; 7.5 mg/kg) | Tumor volume (27th day) ([1]; 7.5 mg/kg) | Tumor volume (day 0) ([1]; 7.5 mg/kg) | T/C ([1]; 15 mg/kg) | TGI ([1]; 15 mg/kg) | RTV (27th day) ([1]; 15 mg/kg) | Tumor volume (27th day) ([1]; 15 mg/kg) | Tumor volume (day 0) ([1]; 15 mg/kg) | T/C ([1]; 30 mg/kg) | TGI ([1]; 30 mg/kg) | difference compared with the vehicle control group ([1]; 30 mg/kg) | RTV (27th day) ([1]; 30 mg/kg) | Tumor volume (27th day) ([1]; 30 mg/kg) | Tumor volume (day 0) ([1]; 30 mg/kg) | TGI ([1]; 30 mg/kg, listed as embodiment 23) | IC50 [2] | IC50 [3] | difference compared with the vehicle control group ([1]; 15 mg/kg)
1 | CNC(=O)c1cccc(-c2ccc3c(N4CCOC[C@@H]4C)nc(N4CCOC5(CCC5)C4)nc3n2)c1 [Embodiment 23] | 83.52% | 22.14% | 3.48 ± 0.37 | 489 ± 51 mm^3 | 142 ± 9 mm^3 | 54.13% | 59.05% | 2.26 ± 0.48 | 324 ± 79 mm^3 | 141 ± 9 mm^3 | 25.50% | 98.33% | significant difference | 1.06 ± 0.17 | 150 ± 26 mm^3 | 141 ± 8 mm^3 | 98% | 607 nM | 257 nM | 
2 | CNC(=O)c1cccc(-c2ccc3c(N4CCOC[C@@H]4C)nc(N4CCOC[C@@H]4C)nc3n2)c1 [AZD2014, reference compound] | 53.95% | 61.10% | 2.25 ± 0.47 | 315 ± 65 mm^3 | 142 ± 9 mm^3 | 20.36% | 104% and 104.37% | 0.85 ± 0.26 | 121 ± 41 mm^3 | 141 ± 8 mm^3 |  |  |  |  |  |  |  | 316 nM | 148 nM | significant difference
3 | C[C@H]1COCCN1c1nc(N2CCOC3(CC3)C2)nc2nc(-c3cccc(C(N)=O)c3)ccc12 [Embodiment 51] |  |  |  |  |  | 57.84% | 59.27% | 2.41 ± 0.36 | 323 ± 25 mm^3 | 142 ± 11 mm^3 |  |  |  |  |  |  |  |  |  | 
